Results from patent publication US7192760B2 (priority 2000, dated 2007).
Like-named read-outs stand apart in the source and are kept apart here.

How the values were obtained:
[1] = tested on: Brevibacterium lactofermentum KFCC-10680; assay: α-Aminobutyric acid resistance: growth on minimal medium containing α-aminobutyric acid; assay type: cell-based; details: strain KFCC-10680, cultivation at 30° C. for 6 days
[2] = tested on: Brevibacterium lactofermentum CJJA22; assay: as above; assay type: cell-based; details: strain printed CJJA21; α-aminobutyric acid 20 g/l; cultivation at 30° C. for 6 days
[3] = tested on: Brevibacterium lactofermentum KFCC-10680; details: strain KFCC-10680, cultivation at 30° C. for 6 days
[4] = tested on: Brevibacterium lactofermentum CJJA21; details: strain CJJA21; sodium azide 800 mg/l; cultivation at 30° C. for 6 days

Row | Structure (SMILES) | growth ([1]; α-aminobutyric acid 5 g/l) | growth ([1]; α-aminobutyric acid 10 g/l) | growth ([1]; α-aminobutyric acid 15 g/l) | growth ([1]; α-aminobutyric acid 20 g/l) | growth [2] | growth ([3]; sodium azide 100 mg/l) | growth ([3]; sodium azide 200 mg/l) | growth ([3]; sodium azide 300 mg/l) | growth ([3]; sodium azide 500 mg/l) | growth ([3]; sodium azide 800 mg/l) | growth [4]
1 | CCC(N)C(=O)O (racemic) [α-aminobutyric acid, D,L-α-amino-n-butyric acid] | + | − | − | − | − |  |  |  |  |  | 
2 | [N-]=[N+]=[N-] [Sodium azide, sodium azide] |  |  |  |  |  | + | + | − | − | − | −
